Experimental data published in patent US11149054B2, “Oxysterols and methods of use thereof” (Sage Therapeutics, Inc., priority 2016, dated 2021).
Where two headings read alike, the source gives them in different places.

Assays:
[1] = target: GlunN1/GluN2A glutamate receptors (Homo sapiens (Human), UniProt Q05586+Q12879); assay: Whole-cell patch clamp of mammalian cells (Ionworks Barracuda), positive allosteric modulation, GluN1/GluN2A; assay type: cell-based
Method: (§1) The measurements were performed using Ion Works Barracuda platform following this procedure:
(§2) Electrophysiological Procedures:
(§3) • a) Intracellular solution (mM): 50 mM CsCl, 90 mM CsF, 2 mM MgCl2, 5 mM EGTA, 10 mM HEPES. Adjust to pH 7.2 with CsOH. • b) Extracellular solution, HB-PS (composition in mM): NaCl, 137; KCl, 1.0; CaCl2), 5; HEPES, 10; Glucose, 10; pH adjusted to 7.4 with NaOH (refrigerated until use). • c) Holding potential: −70 mV, potential during agonist/PAM application: −40 mV. Recording Procedure: • a) Extracellular buffer will be loaded into the PPC plate wells (11 μL per well). Cell suspension will be pipetted into the wells (9 μL per well) of the PPC planar electrode. • b) Whole-cell recording configuration will be established via patch perforation with membrane currents recorded by on-board patch clamp amplifiers. • c) Two recordings (scans) will be performed. First, during pre-application of test article alone (duration of pre-application—[…]) and second, during test articles and agonist (EC20 L-glutamate and 30 μM glycine) co-application to detect positive modulatory effects of the test article. […] Potentiating Effect of Positive Allosteric Modulators (PAM) on the Channel
(§4) PAM concentration-response data will be fitted to an equation of the form: % Activation=% L-glutamate EC20+{(% MAX−% L-glutamate EC20)/[1+([Test]/EC50)^N]}, where [Test] will be the concentration of PAM (test article), EC50 will be the concentration of PAM producing half-maximal activation, N will be the Hill coefficient, % L-glutamate EC20 will be the percentage of the current Elicited with L-glutamate EC20, % MAX is the percentage of the current activated with the highest dose of PAM co-admitted with L-glutamate EC20 and % Activation will be the percentage of the current elicited with L-glutamate EC10-30 at each PAM concentration. The maximal amplitude of the evoked currents are measured and defined as Peak Current Amplitude (PCA).

[2] = target: GluN2B glutamate receptors (Homo sapiens (Human), UniProt Q05586+Q13224); assay: Whole-cell patch clamp of mammalian cells (Ionworks Barracuda), positive allosteric modulation, GluN2B; assay type: cell-based; details: for Emax: read-out: Avg Emax 2B (%)
Method: as §1, §2, §3, §4

[3] = HEK293 cells, % potentiation of current elicited with EC20 L-glutamate and 30 μM glycine, read-out: Avg Emax 2A (%)
[4] = % potentiation of current elicited with EC20 L-glutamate and 30 μM glycine
[5] = HEK293 cells, co-application with EC20 L-glutamate and 30 μM glycine, 8-point concentration-response, read-out: Avg EC50 2A
[6] = co-application with EC20 L-glutamate and 30 μM glycine, 8-point concentration-response, read-out: Avg EC50 2B
[7] = HEK293, read-out: Avg Emax 2A (%)

Chain of GluN2B glutamate receptors (Q13224 27-1484, other chains not shown): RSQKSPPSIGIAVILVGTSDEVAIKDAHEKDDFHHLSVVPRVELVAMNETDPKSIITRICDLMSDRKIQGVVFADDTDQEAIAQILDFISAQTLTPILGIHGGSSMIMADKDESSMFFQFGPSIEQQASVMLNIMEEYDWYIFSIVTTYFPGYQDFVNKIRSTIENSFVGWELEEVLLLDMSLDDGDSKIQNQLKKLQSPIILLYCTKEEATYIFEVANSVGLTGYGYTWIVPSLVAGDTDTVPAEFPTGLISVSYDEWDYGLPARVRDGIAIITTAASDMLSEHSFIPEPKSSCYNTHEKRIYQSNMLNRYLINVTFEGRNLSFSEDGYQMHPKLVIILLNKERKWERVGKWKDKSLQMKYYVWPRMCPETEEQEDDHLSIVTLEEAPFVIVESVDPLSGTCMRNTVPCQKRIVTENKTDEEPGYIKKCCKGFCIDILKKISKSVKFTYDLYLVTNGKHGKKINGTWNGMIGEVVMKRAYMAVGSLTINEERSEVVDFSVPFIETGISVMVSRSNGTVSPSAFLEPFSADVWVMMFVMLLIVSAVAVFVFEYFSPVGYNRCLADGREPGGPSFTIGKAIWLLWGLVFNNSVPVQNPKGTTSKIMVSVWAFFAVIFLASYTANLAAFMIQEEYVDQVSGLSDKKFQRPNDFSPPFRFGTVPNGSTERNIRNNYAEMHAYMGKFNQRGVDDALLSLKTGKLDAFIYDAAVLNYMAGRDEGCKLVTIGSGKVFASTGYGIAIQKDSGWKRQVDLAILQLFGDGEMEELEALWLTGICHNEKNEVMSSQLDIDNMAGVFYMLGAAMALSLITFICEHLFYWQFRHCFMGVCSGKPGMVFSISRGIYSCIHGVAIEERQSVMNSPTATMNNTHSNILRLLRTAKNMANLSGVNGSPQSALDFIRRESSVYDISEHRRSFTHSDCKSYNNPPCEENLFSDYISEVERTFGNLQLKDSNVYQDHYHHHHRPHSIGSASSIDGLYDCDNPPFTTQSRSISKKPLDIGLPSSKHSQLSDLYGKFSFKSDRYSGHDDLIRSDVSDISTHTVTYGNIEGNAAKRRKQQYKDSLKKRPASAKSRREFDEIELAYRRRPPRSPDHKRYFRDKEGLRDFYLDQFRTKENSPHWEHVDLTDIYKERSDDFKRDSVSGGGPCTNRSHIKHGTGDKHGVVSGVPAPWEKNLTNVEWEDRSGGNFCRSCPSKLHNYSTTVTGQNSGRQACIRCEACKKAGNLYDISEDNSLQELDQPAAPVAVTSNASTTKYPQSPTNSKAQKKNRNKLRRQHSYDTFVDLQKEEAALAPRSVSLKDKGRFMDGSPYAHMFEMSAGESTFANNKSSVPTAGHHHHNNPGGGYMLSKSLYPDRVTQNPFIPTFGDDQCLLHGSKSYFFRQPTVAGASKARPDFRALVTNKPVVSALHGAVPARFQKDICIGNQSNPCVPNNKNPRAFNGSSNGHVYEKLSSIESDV
Chain of GlunN1/GluN2A glutamate receptors (Q12879 23-1464, other chains not shown): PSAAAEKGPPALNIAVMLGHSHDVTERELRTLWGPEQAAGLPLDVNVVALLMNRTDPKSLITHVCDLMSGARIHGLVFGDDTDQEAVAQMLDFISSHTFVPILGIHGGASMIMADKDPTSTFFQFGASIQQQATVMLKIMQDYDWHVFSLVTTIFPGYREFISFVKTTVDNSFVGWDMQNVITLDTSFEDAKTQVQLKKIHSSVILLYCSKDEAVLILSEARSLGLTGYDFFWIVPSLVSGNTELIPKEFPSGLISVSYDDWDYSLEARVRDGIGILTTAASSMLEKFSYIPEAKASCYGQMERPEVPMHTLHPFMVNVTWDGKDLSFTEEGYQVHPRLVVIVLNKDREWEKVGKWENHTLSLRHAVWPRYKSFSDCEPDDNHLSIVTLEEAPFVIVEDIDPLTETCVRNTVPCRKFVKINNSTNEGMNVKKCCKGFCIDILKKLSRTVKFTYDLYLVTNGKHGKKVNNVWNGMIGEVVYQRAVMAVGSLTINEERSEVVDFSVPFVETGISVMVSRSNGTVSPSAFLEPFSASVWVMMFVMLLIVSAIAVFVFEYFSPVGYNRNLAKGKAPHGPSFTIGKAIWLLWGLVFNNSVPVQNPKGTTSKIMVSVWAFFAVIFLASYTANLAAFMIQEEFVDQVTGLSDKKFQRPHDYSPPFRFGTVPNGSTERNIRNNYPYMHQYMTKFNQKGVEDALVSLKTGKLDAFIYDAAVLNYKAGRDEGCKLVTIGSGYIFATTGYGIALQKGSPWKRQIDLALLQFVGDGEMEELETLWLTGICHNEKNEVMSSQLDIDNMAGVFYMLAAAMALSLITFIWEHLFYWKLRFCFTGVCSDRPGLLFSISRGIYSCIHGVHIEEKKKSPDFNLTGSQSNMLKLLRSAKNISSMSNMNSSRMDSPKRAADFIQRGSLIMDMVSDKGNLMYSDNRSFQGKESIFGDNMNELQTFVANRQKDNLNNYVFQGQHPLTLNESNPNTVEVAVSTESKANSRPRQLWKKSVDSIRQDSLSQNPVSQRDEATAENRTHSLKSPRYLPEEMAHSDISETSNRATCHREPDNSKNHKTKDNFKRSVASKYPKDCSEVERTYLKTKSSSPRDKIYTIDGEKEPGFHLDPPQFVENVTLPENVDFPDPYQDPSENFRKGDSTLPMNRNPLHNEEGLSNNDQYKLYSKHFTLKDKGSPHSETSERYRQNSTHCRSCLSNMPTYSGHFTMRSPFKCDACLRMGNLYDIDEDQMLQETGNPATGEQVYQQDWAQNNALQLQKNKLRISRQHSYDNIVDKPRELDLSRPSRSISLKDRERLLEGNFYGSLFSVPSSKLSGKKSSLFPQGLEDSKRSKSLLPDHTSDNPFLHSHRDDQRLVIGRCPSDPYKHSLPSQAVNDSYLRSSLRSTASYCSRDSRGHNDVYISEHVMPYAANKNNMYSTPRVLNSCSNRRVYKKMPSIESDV

Compound | EC50 [1] [µM] | Emax [1, 3] [%] | EC50 [2] [µM] | Emax [2, 4] [%] | EC50 [1, 5] [µM] | EC50 [2, 6] [µM] | Emax [1, 7] [%] | Emax [2] [%]
CC[C@]1(O)CC[C@@]2(C)C(=CC[C@H]3[C@@H]4CC[C@H]([C@H](C)CC[C@@H](O)c5ccc(C#N)cc5)[C@@]4(C)CC[C@@H]32)C1 (single isomer, unassigned) [Compound 6680] | 1.37 | 175 | 0.464 | 123 | – | – | – | –
CC[C@H](O)CC[C@@H](C)[C@H]1CC[C@H]2[C@@H]3CC=C4C[C@](O)(CC)CC[C@@H]4[C@H]3CC[C@]12C [Compound 8585] | 0.286 | 194 | 0.237 | 233 | – | – | – | –
CC[C@]1(O)CC[C@H]2[C@@H](CC[C@@H]3[C@@H]2CC[C@]2(C)[C@@H]([C@H](C)CCCC4(O)CCC(F)(F)CC4)CC[C@@H]32)C1 [Compound 9813] | – | 68.7 | – | 99.9 | 0.469 | 0.268 | – | –
C[C@H](CCC[C@@H](O)C(C)(C)C)[C@H]1CC[C@H]2[C@@H]3CC[C@H]4C[C@](O)(C(F)(F)F)CC[C@]4(C)[C@H]3CC[C@]12C [Compound 12055] | – | 114 | – | 185 | – | – | – | –
C[C@H](CC[C@H](O)C1CCC1)[C@H]1CC[C@H]2[C@@H]3CC[C@H]4C[C@](O)(C(F)(F)F)CC[C@]4(C)[C@H]3CC[C@]12C [7−A] | 0.248 | 544 | 0.187 | 431 | – | – | – | –
C[C@H](CCCO)[C@H]1CC[C@H]2[C@@H]3CC[C@H]4C[C@](O)(C(F)(F)F)CC[C@]4(C)[C@H]3CC[C@]12C [Compound 2499] | 0.768 | 180 | 0.751 | 238 | – | – | – | –
CC[C@]1(O)CC[C@@]2(C)[C@@H](CC[C@@H]3[C@@H]2CC[C@]2(C)[C@@H]([C@H](C)CC[C@@H](O)c4ccccc4)CC[C@@H]32)C1 [Compound 6571] | 0.19 | 158 | 0.267 | 241 | – | – | – | –
C[C@H](CC[C@]1(O)CC[C@@H](C)CC1)[C@H]1CC[C@H]2[C@@H]3CC[C@H]4C[C@](O)(C(F)(F)F)CC[C@]4(C)[C@H]3CC[C@]12C [Compound 3886] | – | – | – | – | – | – | 106 | 164
C[C@H](CCC(O)C(C)(C)C)[C@H]1CC[C@H]2[C@@H]3CC[C@H]4C[C@](O)(C(F)(F)F)CC[C@]4(C)[C@H]3CC[C@]12C (stereo partly drawn) [Compound 3] | 0.185 | – | 0.338 | – | – | – | 556 | 532
C[C@H](CC[C@@H](O)C(C)(C)C)[C@H]1CC[C@H]2[C@@H]3CC[C@@H]4C[C@](O)(C(F)(F)F)CC[C@]4(C)[C@H]3CC[C@]12C [Compound 3788] | 1.32 | – | 1.12 | – | – | – | – | –
CC[C@H](O)CC[C@@H](C)[C@H]1CC[C@H]2[C@@H]3CC[C@H]4C[C@](O)(CC)CC[C@@H]4[C@H]3CC[C@]12C [Compound 8809] | 0.533 | – | 0.16 | – | – | – | 73.6 | 78.2
CC[C@]1(O)CC[C@H]2C(=CC[C@@H]3[C@@H]2CC[C@]2(C)[C@@H]([C@H](C)CCC[C@H](O)C(C)(C)C)CC[C@@H]32)C1 [Compound 10043] | 0.897 | 146 | 1.07 | 211 | – | – | – | –
C[C@H](CC[C@H](O)C1CCCCC1)[C@H]1CC[C@H]2[C@@H]3CC[C@H]4C[C@](O)(C(F)(F)F)CC[C@]4(C)[C@H]3CC[C@]12C [Compound 4155] | 0.442 | 164 | 0.612 | 198 | – | – | – | –
C[C@H](CCC(O)Cc1ccccc1)[C@H]1CC[C@H]2[C@@H]3CC=C4C[C@@](C)(O)CC[C@]4(C)[C@H]3CC[C@]12C (stereo partly drawn) [Compound 660] | – | 195 | – | 281 | – | – | – | –
CC[C@]1(O)CC[C@H]2[C@@H](CC[C@@H]3[C@@H]2CC[C@]2(C)[C@@H]([C@H](C)CCCO)CC[C@@H]32)C1 [Compound 376] | > 10 | 49.9 | > 10 | 59.8 | – | – | – | –
C[C@H](CC[C@](C)(O)c1ccccc1)[C@H]1CC[C@H]2[C@@H]3CC=C4C[C@@](C)(O)CC[C@]4(C)[C@H]3CC[C@]12C [Compound 7468] | – | – | – | – | – | – | 273 | 317
CC[C@]1(O)CC[C@H]2C(=CC[C@@H]3[C@@H]2CC[C@]2(C)[C@@H]([C@H](C)CCC[C@@H](O)C(F)(F)F)CC[C@@H]32)C1 [Compound 10456] | – | 231 | – | 266 | 0.24 | 0.209 | – | –
C[C@H](CC[C@@H](O)C(F)(F)F)[C@H]1CC[C@H]2[C@@H]3CC=C4C[C@](O)(C(F)(F)F)CC[C@]4(C)[C@H]3CC[C@]12C [Compound 3149] | 0.0697 | – | 0.0607 | – | – | – | – | –
CC[C@]1(O)CC[C@@]2(C)C(=CC[C@H]3[C@@H]4CC[C@H]([C@H](C)CC[C@@H](O)c5ccccc5F)[C@@]4(C)CC[C@@H]32)C1 [Compound 7282] | 0.0959 | – | 0.174 | – | – | – | – | –
CC[C@]1(O)CC[C@@]2(C)C(=CC[C@H]3[C@@H]4CC[C@H]([C@H](C)CC[C@@H](O)c5ccccc5C#N)[C@@]4(C)CC[C@@H]32)C1 [Compound 7399] | 0.696 | 150 | 1.58 | 180 | – | – | – | –
CC[C@H]1CC[C@@](O)(CC[C@@H](C)[C@H]2CC[C@H]3[C@@H]4CC[C@H]5C[C@](O)(C(F)(F)F)CC[C@]5(C)[C@H]4CC[C@]23C)CC1 [Compound 4475] | 0.461 | 364 | 0.266 | 355 | – | – | – | –
CC[C@]1(O)CC[C@@]2(C)C(=CC[C@H]3[C@@H]4CC[C@H]([C@H](C)CC[C@H](O)c5cccc(F)c5)[C@@]4(C)CC[C@@H]32)C1 [Compound 6896] | 0.519 | 216 | 1.68 | 402 | – | – | – | –
CC[C@]1(O)CC[C@H]2C(=CC[C@@H]3[C@@H]2CC[C@]2(C)[C@@H]([C@H](C)CC[C@H](O)C(C)(C)C)CC[C@@H]32)C1 [Compound 8378] | 0.124 | – | 0.208 | – | – | – | 195 | 259
CC[C@]1(O)CC[C@@]2(C)C(=CC[C@H]3[C@@H]4CC[C@H]([C@H](C)CC[C@H](O)c5ccc(F)cc5)[C@@]4(C)CC[C@@H]32)C1 [Compound 7146] | – | – | 0.216 | – | – | – | – | –
C[C@H](CC[C@]1(O)CCOC1)[C@H]1CC[C@H]2[C@@H]3CC=C4C[C@](O)(C(F)(F)F)CC[C@]4(C)[C@H]3CC[C@]12C [Compound 3496] | 0.0351 | – | – | – | – | – | – | –
C[C@H](CCC(O)c1ccncc1)[C@H]1CC[C@H]2[C@@H]3CC=C4C[C@@](C)(O)CC[C@]4(C)[C@H]3CC[C@]12C (stereo partly drawn) [Compound 154] | – | 18.2 | – | – | > 10 | – | – | –
C[C@H](CC[C@]1(O)CC[C@H](C)CC1)[C@H]1CC[C@H]2[C@@H]3CC[C@H]4C[C@](O)(C(F)(F)F)CC[C@]4(C)[C@H]3CC[C@]12C [Compound 3877] | – | – | 0.512 | – | – | – | – | –
C[C@H](CC[C@@](C)(O)c1ccccc1)[C@H]1CC[C@H]2[C@@H]3CC=C4C[C@@](C)(O)CC[C@]4(C)[C@H]3CC[C@]12C [Compound 7467] | – | – | > 10 | – | – | – | – | –
